Where two headings read alike, the source gives them in different places.
How the values were obtained:
[1] = target: T1, hMGL (Homo sapiens, UniProt Q99685); assay: Fluorescent enzyme assay, MGL (AHMMCE hydrolysis); type: biochemical; conditions: for inhibition at 1 µM: 1000 nM inhibitor; for inhibition at 0.01 µM: read-out: % Inhibition of Enzyme by inhibitor, MGL, 10 nM; for inhibition at 100 µM: 100 uM inhibitor, printed in the 1000 nM column
T1 construct: A full-length cDNA clone of the human MGL transcript variant 1; made in house; host or cells: E. coli BL21 (DE3)
T1 sequence (Q99685 2-303 limits assumed): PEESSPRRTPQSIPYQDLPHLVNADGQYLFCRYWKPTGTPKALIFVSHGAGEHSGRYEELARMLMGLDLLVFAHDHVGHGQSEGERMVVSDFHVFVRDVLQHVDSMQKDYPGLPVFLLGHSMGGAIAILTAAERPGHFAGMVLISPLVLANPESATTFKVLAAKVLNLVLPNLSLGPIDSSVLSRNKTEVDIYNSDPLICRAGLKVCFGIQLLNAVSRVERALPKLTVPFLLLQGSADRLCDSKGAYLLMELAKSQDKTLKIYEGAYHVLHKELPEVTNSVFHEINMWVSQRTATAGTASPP
Method: (§1) Some analogs were tested for their FAAH/MGL inhibitory activity, which is expressed as % of inhibition (Tables 2, 3, and 4 below). The percentage of inhibition results from three-point assay (three concentrations of inhibitor are used) and it is less accurate (preliminary screening) than the IC50/Ki values that are determined from eight-point assay (eight different concentrations of inhibitor were used). The percentage of inhibition describes the percentage by which the inhibitor reduces the velocity/rate of AAMCA (arachidonoyl-7-amino-4-methylcoumarin amide) or AHMMCE (arachidonoyl-7-hydroxy-6-methoxy-4-methylcoumarin ester) hydrolysis by FAAH or MGL respectively. The IC50 is the concentration of the inhibitor, which results in 50% inhibition of the velocity/rate of AAMCA (arachidonoyl 7-amino-4-methylcoumarin amide) hydrolysis by FAAH or AHMMCE (Arachidonoyl, 7-hydroxy-6-methoxy-4-methylcoumarin ester) hydrolysis by MGL. The Ki value is the affinity constant and describes the ability of the compounds to inhibit the function of FAAH or MGL. The lower the IC50/Ki values, the higher the affinity of the inhibitor for the enzyme and the higher its inhibitory activity. A detailed description of the methods used to test inhibitory activity of compounds is given below.
A full-length cDNA clone of the human MGL transcript variant 1 (gi: 51242951) was obtained from OriGene Technologies (Rockville, Md.). The coding part of the MGL sequence (except the translation initiation codon ATG) was amplified by a polymerase chain reaction (PCR) using forward […] and reverse […] primers containing PmlI and SacI restriction enzyme recognition sites, respectively. iProof high-fidelity DNA polymerase (Bio-Rad, Hercules, Calif.) was used in the PCR amplification with 33 cycles, each consisting of denaturation at 94° C. for 10 s, annealing at 55° C. for 33 s, and extension at 72° C. for 1 min. The PCR product and pET45b vector were digested with PmlI and SacI restriction enzymes, and the vector was dephosphorylated with CIP followed by in-gel purification using the MinElute Gel Extraction Kit (Qiagen Corp., Valencia, Calif.). The fragment was inserted into the vector directly downstream after the 6 histidine and valine codons, generating the construct pET45His6hMGL for expression of hMGL containing an N-terminal His6-tag. GC10 E. coli cells were used for DNA transformation and plasmid propagation. Mini- and midi-scale plasmid DNA preparations were performed using a GenElute Plasmid Miniprep Kit (Sigma) and PureYield Plasmid Midiprep System (Promega, Madison, Wis.), respectively. In-frame vector-fragment junctions and the coding sequence of the recombinant gene were confirmed by sequencing. The pET45His6hMGL construct was transformed into BL21 (DE3) and Origami (DE3) E. coli expression strains (Novagen, Madison, Wis.).
A single E. coli BL21 (DE3) colony containing the pET45His6hMGL plasmid was inoculated into 12 mL of Luria broth-ampicillin medium and grown overnight with shaking (250 rpm) at 37° C. The next morning, 10 mL of this culture was inoculated into 1 L of fresh Luria broth-ampicillin and allowed to grow until culture turbidity reached an (OD)600 of 0.6-0.8, at which time expression from the T7 promoter was induced by adding isopropyl-β-D-thio-galactopyranoside (1 mM). After 5 h induction, the cells were harvested by centrifugation at 5,000 g for 10 min at 4° C., washed with PBS, and held at −80° C. Five grams (wet-weight) of cells were resuspended in 50 mL lysis buffer (100 mM NaCl; 50 mM Tris, pH 8.0) supplemented with Triton X-100 (0.5%), lysozyme (0.2 mg/mL), and DNase I (25 μg/ml) and disrupted on ice by three, one-min sonication cycles, each consisting of 1-sec sonication bursts at 50 W power separated from each other by a 2-sec interval (Vibra-Cell 500 W, Sonics, Newtown, Conn.). The cell lysate was centrifuged at 10,000 g for 30 min at 4° C. […]

[2] = target: T2, ΔTM rFAAH (Rattus norvegicus, UniProt P97612); assay: Fluorescent enzyme assay, FAAH (AAMCA hydrolysis); type: biochemical; conditions: for inhibition at 1 µM: 1000 nM inhibitor; for inhibition at 1 µM / inhibition at 0.01 µM / IC50: AAMCA substrate; for inhibition at 1 µM / inhibition at 0.01 µM: screening assay; for inhibition at 0.01 µM: 10 nM inhibitor; for IC50: eight-point dose response; for inhibition at 100 µM: 100 uM inhibitor, printed in the 1000 nM column
T2 construct: 15 ug of ΔTM rFAAH (cell lysate obtained by recombinant procedure); made in house
T2 sequence (P97612 30-579 limits assumed): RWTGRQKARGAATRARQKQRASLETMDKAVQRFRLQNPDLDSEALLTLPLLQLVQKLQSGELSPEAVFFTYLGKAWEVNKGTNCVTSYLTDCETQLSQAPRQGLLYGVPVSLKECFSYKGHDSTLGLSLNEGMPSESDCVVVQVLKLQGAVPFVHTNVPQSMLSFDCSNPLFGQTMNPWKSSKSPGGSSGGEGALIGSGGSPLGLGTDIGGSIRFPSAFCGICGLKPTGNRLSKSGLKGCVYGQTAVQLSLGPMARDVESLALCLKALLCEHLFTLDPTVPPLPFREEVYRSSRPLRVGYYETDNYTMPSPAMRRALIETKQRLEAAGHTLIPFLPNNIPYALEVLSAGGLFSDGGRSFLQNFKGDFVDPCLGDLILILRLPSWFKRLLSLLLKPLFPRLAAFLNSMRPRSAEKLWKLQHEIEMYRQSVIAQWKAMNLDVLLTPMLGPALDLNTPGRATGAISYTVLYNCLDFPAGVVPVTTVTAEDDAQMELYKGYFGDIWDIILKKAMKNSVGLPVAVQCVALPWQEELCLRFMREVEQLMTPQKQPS
Method: as §1
The enzyme (FAAH and MGL) assays were performed in 96 well plates (Coster #3650) in a total volume of 200 uL. Fluorogenic substrate AAMCA (arachidonoyl 7-amino-4-methylcoumarin amide) for FAAH and AHMMCE (arachidonoyl 7-hydroxy-6-methoxy-4-methylcoumarin ester) for MGL were used using BioTek Synergy HT Microplate Reader. Compounds and substrates were dissolved in DMSO provide a 10 mM stock solution and kept as a stock solution at −20° C. until used for assay. Stock solutions were thawed and reconstituted in 50:50 DMSO/assay buffer to a final DMSO concentration per well below 8%. This ensures that the compounds and substrate are in solution during assay. […] Appropriate substrate was added to adjust the final concentration in each well to 20 uM for FAAH (2× Km) and 10 uM for MGL (1×KM). Fluorescence readings were performed at λex=360/λem=460 for 4 h using Kinetic assay protocol at every 20 min (the fluorescent product coumarin produced is quantitated by this procedure). The readings at 3 h for FAAH and 2 h for MGL (linear maximum hydrolysis kinetics of enzyme on substrate) were used to calculate percent inhibition based on controls. Compounds which had more than 50 percent inhibition at 10 uM were selected for dose response study to determine IC50 values. The dose response at 8 concentration points was performed as with the screening assay except that compounds were serially diluted to 8 concentration points which were chosen based on IC50 value, which were calculated from the screening assay results. Assays are run twice in triplicates and Graphpad Prism software is used to plot inhibition data to obtain IC50 values.

[3] = test system: rats (KA-induced seizures); assay: KA-induced seizures in rats, seizure scoring for 4 h; type: in vivo; conditions: 5 mg/kg injected immediately after 10 mg/kg KA; 4-h rating period
Method: These compounds were tested in vivo. Seizures were initiated in rats by injection with 10 mg/kg of KA (insult).

[4] = AHMMCE substrate, screening assay

Row | inhibition at 1 µM [1, 4] [%] | inhibition at 1 µM [2] [%] | inhibition at 0.01 µM [2] [%] | Structure (SMILES) | further results
1 | 35 | 90 | – | C#CCc1nnnn1C(=O)N(C)C [Compound 2, N,N-dimethyl-5-prop-2-yn-1-yl-1H-tetrazole-1-carboxamide] | KA-induced seizure severity [3]: reduce KA-induced seizure severity
2 | 40 | 21 | – | CN(C)C(=O)n1nnc(Cc2ccncc2)n1 [Compound 39, N,N-dimethyl-5-(pyridin-4-ylmethyl)-2H-tetrazole-2-carboxamide] | –
3 | 10 | 12 | – | CN(C)C(=O)n1nnc(Cc2ccc(-c3ccncc3)cc2)n1 [Compound 44, N,N-dimethyl-5-(4-(pyridin-4-yl)benzyl)-2H-tetrazole-2-carboxamide] | –
4 | 15 | 90 | 12 | CN(CCCCCl)C(=O)n1cnc(-c2ccccc2)c1 [Compound 47, N-(4-chlorobutyl)-N-methyl-4-phenyl-1H-imidazole-1-carboxamide] | IC50 [2]: 78 nM
5 | 14 | 90 | 8 | CN(CCCCN=[N+]=[N-])C(=O)n1cnc(-c2ccccc2)c1 [Compound 48, N-(4-azidobutyl)-N-methyl-4-phenyl-1H-imidazole-1-carboxamide] | –
6 | 7 | 90 | 25 | CN(CCCCN=C=S)C(=O)n1cnc(-c2ccccc2)c1 [Compound 49, N-(4-isothiocyanatobutyl)-N-methyl-4-phenyl-1H-imidazole-1-carboxamide] | IC50 [2]: 42 nM
7 | – | – | – | CN(C)C(=O)n1nnc(Cc2cccc3ccccc23)n1 [Compound 50, N,N-dimethyl-5-(naphthalen-1-ylmethyl)-2H-tetrazole-2-carboxamide] | inhibition at 100 µM [1]: 42%; inhibition at 100 µM [2]: 85%
8 | – | 30 | – | CN(C)C(=O)n1nnc(Cc2ccc3ccccc3c2)n1 [Compound 51] | inhibition at 100 µM [1]: 26%
9 | 71 | 100 | – | CN(CCCCCl)C(=O)n1cnc(-c2ccccc2)n1 [Compound 53, N-(4-chlorobutyl)-N-methyl-3-phenyl-1H-1,2,4-triazole-1-carboxamide] | inhibition at 0.01 µM ([1]; 10 nM inhibitor, AHMMCE substrate, screening assay): 13%
10 | – | – | – | CN(C)C(=O)n1cnc2nc(OCc3ccccc3)ncc21 [Compound 59, 2-(benzyloxy)-N,N-dimethyl-7H-purine-7-carboxamide] | inhibition at 100 µM [1]: 86%; inhibition at 100 µM [2]: 10%
11 | 86 | 96 | – | CN(C)C(=O)n1cnc2ncncc21 [Compound 60, N,N-dimethyl-7H-purine-7-carboxamide] | –
12 | 87 | 87 | – | CN(C)C(=O)n1cnc2cncnc21 [Compound 61, N,N-dimethyl-9H-purine-9-carboxamide] | –
13 | 83 | 99 | – | CN(C)C(=O)N1C=NC2C(N=CN2C(=O)N(C)C)C1=O (stereo not drawn) [Compound 62, N^1,N^1,N^9,N^9-tetramethyl-6-oxo-5,6-dihydro-4H-purine-1,9-dicarboxamide] | –

Row | Structure (SMILES) | inhibition at 1 µM [1, 4] [%] | inhibition at 1 µM [2] [%] | inhibition at 0.01 µM [2] [%] | further results
14 | CN(C)C(=O)Oc1ccc(Cc2nnn(C(=O)N(C)C)n2)cc1 [Compound 36a, 4((2-(dimethylcarbamoyl)-2H-tetrazol-5-yl)methyl)phenyl dimethylcarbamate] | – | – | 80 | inhibition at 0.01 µM [1]: 92%
15 | CN(C)C(=O)Oc1ccc(Cc2nnnn2C(=O)N(C)C)cc1 [Compound 36b, 4-((1-(dimethylcarbamoyl)-1H-tetrazol-5-yl)methyl)phenyl dimethylcarbamate] | – | – | 82 | inhibition at 0.01 µM [1]: 98%
16 | CN(C)C(=O)n1cc(Cc2ccccc2)nn1 [Compound 70, 4-benzyl-N,N-dimethyl-1,2,3-triazole-1-carboxamide] | 99 | 98 | – | –
